Measurements from US6706740B2, “Fungicidal heterocyclic aromatic amides and their compositions, methods of use and preparation” (Dow AgroSciences LLC, priority 1999, dated 2004).

tested on: Erysiphe graminis—ERYSGT; test: Powdery Mildew of Wheat, in vivo whole plant, 24 Hour Protectant; conditions: 100 ppm spray, wheat, 24 hour protectant; control of fungal infection vs untreated plants

Compound | ERYSGT in vivo 1 Day Protectant
COc1ccnc(C(=O)NC(COC(=O)CCc2ccccc2)C(=O)OC(C)COC(=O)C(C)C)c1O (stereo not drawn) [Compound 359] | − (<25% control of fungal infection)

same assay, conditions: Erysiphe; 100 ppm spray, 24 hour protectant, wheat; control of fungal infection vs untreated plants; read-out: ERYSGT in vivo 1 Day Protectant

Compound | pest or weed control at 100 ppm [%]
COc1ccnc(C(=O)NC2CCCC2O)c1O (stereo not drawn) [Compound 248] | < 25
COc1ccnc(C(=O)NC2CC(C)(C)/C=C\CC(C)(C)C2)c1O (stereo not drawn) [Compound 283] | < 25

tested on: Leptosphaeria nodorum—LEPTNO; test: Glume Blotch of Wheat, in vivo whole plant, 24 Hour Protectant; conditions: 100 ppm spray, wheat, 24 hour protectant; control of fungal infection vs untreated plants

Compound | LEPTNO in vivo 1 Day Protectant
COc1ccnc(C(=O)NC(COC(=O)CCc2ccccc2)C(=O)OC(C)COC(=O)C(C)C)c1O (stereo not drawn) [Compound 359] | + (25-74% control of fungal infection)

same assay, conditions: Leptosphaeria; 100 ppm spray, 24 hour protectant, wheat; control of fungal infection vs untreated plants; read-out: LEPTNO in vivo 1 Day Protectant

Compound | pest or weed control at 100 ppm [%]
COc1ccnc(C(=O)NC2CCCC2O)c1O (stereo not drawn) [Compound 248] | 25 to 74
COc1ccnc(C(=O)NC2CC(C)(C)/C=C\CC(C)(C)C2)c1O (stereo not drawn) [Compound 283] | 25 to 74

tested on: Stagonospora nodorum (Leptosphaeria nodorum—LEPTNO); test: In vitro fungal growth inhibition, Stagonospora nodorum (LEPTNO); type: cell-based; conditions: 25 ppm in growth medium

Compound | LEPTNO in vitro Growth Inhibition
COc1ccnc(C(=O)NC(COC(=O)CCc2ccccc2)C(=O)OC(C)COC(=O)C(C)C)c1O (stereo not drawn) [Compound 359] | − (less than 80% growth inhibition)

same assay, conditions: Leptosphaeria; 25 ppm in growth medium; read-out: LEPTNO in vitro Growth Inhibition

Compound | inhibition at 25 ppm [%]
COc1ccnc(C(=O)NC2CCCC2O)c1O (stereo not drawn) [Compound 248] | < 80
COc1ccnc(C(=O)NC2CC(C)(C)/C=C\CC(C)(C)C2)c1O (stereo not drawn) [Compound 283] | < 80

tested on: Mycosphaerella graminicola (Septoria tritici—SEPTTR); test: In vitro fungal growth inhibition, Mycosphaerella graminicola (SEPTTR); type: cell-based; conditions: 25 ppm in growth medium

Compound | SEPTTR in vitro Growth Inhibition
COc1ccnc(C(=O)NC(COC(=O)CCc2ccccc2)C(=O)OC(C)COC(=O)C(C)C)c1O (stereo not drawn) [Compound 359] | − (less than 80% growth inhibition)

same assay, conditions: Zymoseptoria tritici; 25 ppm in growth medium; read-out: SEPTTR in vitro Growth Inhibition

Compound | inhibition at 25 ppm [%]
COc1ccnc(C(=O)NC2CCCC2O)c1O (stereo not drawn) [Compound 248] | < 80
COc1ccnc(C(=O)NC2CC(C)(C)/C=C\CC(C)(C)C2)c1O (stereo not drawn) [Compound 283] | < 80

tested on: Rhizoctonia solani (RHIZSO); test: microbe, parasite or virus in culture; type: cell-based; conditions: not given

Compound | RHIZSO in vitro Growth Inhibition
COc1ccnc(C(=O)NC(COC(=O)CCc2ccccc2)C(=O)OC(C)COC(=O)C(C)C)c1O (stereo not drawn) [Compound 359] | − (key: +: at least 80% growth inhibition; −: less than 80% growth inhibition)

same assay, conditions: Rhizoctonia solani, read-out: RHIZSO in vitro Growth Inhibition

Compound | inhibition at 25 ppm [%]
COc1ccnc(C(=O)NC2CCCC2O)c1O (stereo not drawn) [Compound 248] | < 80
COc1ccnc(C(=O)NC2CC(C)(C)/C=C\CC(C)(C)C2)c1O (stereo not drawn) [Compound 283] | < 80

tested on: Phytophthora infestans (PHYTIN); test: microbe, parasite or virus in culture; type: cell-based; conditions: 25 ppm in growth medium

Compound | PHYTIN in vitro Growth Inhibition
COc1ccnc(C(=O)NC(COC(=O)CCc2ccccc2)C(=O)OC(C)COC(=O)C(C)C)c1O (stereo not drawn) [Compound 359] | − (less than 80% growth inhibition)

same assay, conditions: Phytophthora infestans, read-out: PHYTIN in vitro Growth Inhibition

Compound | inhibition at 25 ppm [%]
COc1ccnc(C(=O)NC2CCCC2O)c1O (stereo not drawn) [Compound 248] | < 80
COc1ccnc(C(=O)NC2CC(C)(C)/C=C\CC(C)(C)C2)c1O (stereo not drawn) [Compound 283] | < 80

tested on: Magnaporthe grisea (Pyricularia oryzae—PYRIOR); test: microbe, parasite or virus in culture; type: cell-based; conditions: 25 ppm in growth medium

Compound | PYRIOR in vitro Growth Inhibition
COc1ccnc(C(=O)NC(COC(=O)CCc2ccccc2)C(=O)OC(C)COC(=O)C(C)C)c1O (stereo not drawn) [Compound 359] | − (less than 80% growth inhibition)

same assay, conditions: Pyricularia oryzae, read-out: PYRIOR in vitro Growth Inhibition

Compound | inhibition at 25 ppm [%]
COc1ccnc(C(=O)NC2CCCC2O)c1O (stereo not drawn) [Compound 248] | < 80
COc1ccnc(C(=O)NC2CC(C)(C)/C=C\CC(C)(C)C2)c1O (stereo not drawn) [Compound 283] | < 80

tested on: Septoria tritici—SEPTTR; test: Leaf Blotch of Wheat, in vivo whole plant, 24 Hour Protectant; conditions: 100 ppm spray, 24 hour protectant, wheat; control of fungal infection vs untreated plants

Compound | SEPTTR in vivo 1 Day Protectant
COc1ccnc(C(=O)NC2CC(C)(C)/C=C\CC(C)(C)C2)c1O (stereo not drawn) [Compound 283] | + +

same assay, conditions: 100 ppm spray, wheat, 24 hour protectant; control of fungal infection vs untreated plants

Compound | SEPTTR in vivo 1 Day Protectant
COc1ccnc(C(=O)NC(COC(=O)CCc2ccccc2)C(=O)OC(C)COC(=O)C(C)C)c1O (stereo not drawn) [Compound 359] | + +

same assay, conditions: Zymoseptoria tritici, 24 h, 100 ppm spray, 24 hour protectant, wheat; control of fungal infection vs untreated plants; read-out: SEPTTR in vivo 1 Day Protectant

Compound | pest or weed control at 100 ppm [%]
COc1ccnc(C(=O)NC2CCCC2O)c1O (stereo not drawn) [Compound 248] | < 25

tested on: Phytophthora infestans—PHYTIN; test: whole plant or invertebrate; type: in vivo; conditions: 100 ppm spray, tomato, 24 hour protectant; control of fungal infection vs untreated plants

Compound | PHYTIN in vivo 1 Day Protectant
COc1ccnc(C(=O)NC(COC(=O)CCc2ccccc2)C(=O)OC(C)COC(=O)C(C)C)c1O (stereo not drawn) [Compound 359] | − (<25% control of fungal infection)

same assay, conditions: Phytophthora, in Solanum lycopersicum, 24 h, read-out: PHYTIN in vivo 1 Day Protectant

Compound | pest or weed control at 100 ppm [%]
COc1ccnc(C(=O)NC2CCCC2O)c1O (stereo not drawn) [Compound 248] | < 25
COc1ccnc(C(=O)NC2CC(C)(C)/C=C\CC(C)(C)C2)c1O (stereo not drawn) [Compound 283] | < 25

tested on: Ustilago maydis (USTIMA); test: microbe, parasite or virus in culture; type: cell-based; conditions: not given

Compound | USTIMA in vitro Growth Inhibition
COc1ccnc(C(=O)NC(COC(=O)CCc2ccccc2)C(=O)OC(C)COC(=O)C(C)C)c1O (stereo not drawn) [Compound 359] | − (key: +: at least 80% growth inhibition; −: less than 80% growth inhibition)

same assay, conditions: Mycosarcoma maydis, read-out: USTIMA in vitro Growth Inhibition

Compound | inhibition at 25 ppm [%]
COc1ccnc(C(=O)NC2CCCC2O)c1O (stereo not drawn) [Compound 248] | < 80
COc1ccnc(C(=O)NC2CC(C)(C)/C=C\CC(C)(C)C2)c1O (stereo not drawn) [Compound 283] | < 80

tested on: Puccinia recondita—PUCCRT; test: Brown Rust of Wheat, in vivo whole plant, 24 Hour Protectant; conditions: 100 ppm spray, wheat, 24 hour protectant; control of fungal infection vs untreated plants

Compound | PUCCRT in vivo 1 Day Protectant
COc1ccnc(C(=O)NC(COC(=O)CCc2ccccc2)C(=O)OC(C)COC(=O)C(C)C)c1O (stereo not drawn) [Compound 359] | + +

same assay, conditions: Puccinia; 100 ppm spray, 24 hour protectant, wheat; control of fungal infection vs untreated plants; read-out: PUCCRT in vivo 1 Day Protectant

Compound | pest or weed control at 100 ppm [%]
COc1ccnc(C(=O)NC2CCCC2O)c1O (stereo not drawn) [Compound 248] | < 25
COc1ccnc(C(=O)NC2CC(C)(C)/C=C\CC(C)(C)C2)c1O (stereo not drawn) [Compound 283] | 25 to 74
